Experiment [1] has as its system Septoria tritici. The experiment is described as follows: Microtest: activity against leaf blotch on wheat caused by Septoria tritici (Septtr) (M1, M6, M2-3, CM4). The format is cell-based. The following applies: 405 nm, 7 days after inoculation; for Growth (%) at 0.5 ppm Septtr: relative growth vs active compound-free control (100%), microtiter plate; for relative growth in % of the pathogen: 31 ppm, compound-free control = 100%.

In experiment [2] the test system is Botrytis cinerea. The experiment is described as follows: Microtest: activity against the grey mold Botrytis cinerea in the microtiterplate test (Botrci) (M2, M4, M2-1, CM3). It counts as cell-based. As to conditions: relative growth vs active compound-free control (100%), microtiter plate, 405 nm, 7 days after inoculation.
Experiment [3] has as its system Pyricularia oryzae. The format is cell-based. As to conditions: relative growth vs active compound-free control (100%), microtiter plate, 405 nm, 7 days after inoculation.
Experiment [4] relates to Phytophthora infestans. The format is cell-based. The following applies: relative growth vs active compound-free control (100%), microtiter plate, 405 nm, 7 days after inoculation.
For experiment [5], the system named is Phakopsora pachyrhizi. Description: Green house: curative control of soy bean rust on soy beans caused by Phakopsora pachyrhizi (Phakpa K2) (G2-3). It counts as in vivo. As to conditions: 125 ppm, sprayed after inoculation (curative), untreated plants 90% infected.
Experiment [6] has as its system Botrytis cinerea. Description: Green house: preventative fungicidal control of Botrytis cinerea on leaves of green pepper (Botrci P1) (G2-1). It counts as in vivo. As to conditions: 125 ppm, sprayed the day before inoculation, untreated plants 90% infected. The procedure:
Young seedlings of green pepper were grown in pots to the 4 to 5 leaf stage. […] The next day the plants were inoculated with an aqueous biomalt solution containing the spore suspension of Botrytis cinerea.

Experiment [7] relates to Alternaria solani. Description: Green house: preventative fungicidal control of early blight on tomatoes (Alternaria solani) (Alteso P1) (G2, G2-2). The following applies: 125 ppm, sprayed the day before inoculation; tomato; untreated plants 70% infected.
Description: Water was then added to total volume of 100 ml. This stock solution was diluted with the described solvent-emulsifier-water mixture to the given concentration.
Young seedlings of tomato plants were grown in pots. These plants were sprayed to run-off with an aqueous suspension, containing the concentration of active ingredient or mixture mentioned in the table below. The next day, the treated plants were inoculated with an aqueous suspension of Alternaria solani. Then the trial plants were immediately transferred to a humid chamber. After 5 days at 18 to 20° C. and a relative humidity close to 100%, the extent of fungal attack on the leaves was visually assessed as % diseased leaf area.

Take `CC(C)(C)C(O)(Cn1cncn1)c1cccc(Oc2ccccc2)c1` (stereo not shown): the “Growth (%) at 0.5 ppm Septtr” value in experiment [1] came to 83%. For the same molecule, in experiment [2], the “Growth (%) at 31 ppm Botrci” value was determined as 76%. For the same molecule, the “Growth (%) at 8 ppm Pyrior” value in experiment [3] worked out at 89%. The “Growth (%) at 31 ppm Phytin” value in experiment [4] came out at 80%.
`CC(C)(C)C(O)(Cn1cncn1)c1cc(Cl)cc(Oc2ccccc2)c1` (stereo not shown): in experiment [3], the “Growth (%) at 8 ppm Pyrior” value stood at 69%.
As to `CC(C)(C)C(O)(Cn1cncn1)c1cccc(Oc2ccc(Cl)cc2)c1` (stereo not shown) [Compound I-24], the “Growth (%) at 0.5 ppm Septtr” value in experiment [1] came to 13%. In addition, the “Growth (%) at 31 ppm Botrci” value in experiment [2] came to 9%. Besides, the “Growth (%) at 8 ppm Pyrior” value in experiment [3] was 0%. For the same molecule, the “Growth (%) at 31 ppm Phytin” value in experiment [4] is on record as 42%.
For `CC(C)(C)C(O)(Cn1cncn1)c1cc(Cl)cc(-c2ccc(Cl)cc2)c1` (stereo not shown) [Compound I-27], in experiment [5], the “infection (% diseased leaf area)” value worked out at 7%.
Take `OC(Cn1cncn1)(c1cccc(-c2ccc(Cl)cc2)c1)C(F)(F)F` (stereo not shown) [Compound I-29]: in experiment [1], the “relative growth in % of the pathogen” value turned out to be 0%. The “infection (% diseased leaf area)” value in experiment [6] came out at 1%; in experiment [5], 0%; in experiment [7] it was 10%.
Consider `C#CCC(O)(Cn1cncn1)c1cccc(-c2ccc(Cl)cc2)c1` (stereo not shown) [Compound I-30], for which the “relative growth in % of the pathogen” value in experiment [1] is given as 0%. For the same molecule, the “infection (% diseased leaf area)” value in experiment [6], in experiment [5] and in experiment [7] was 1% in each case.
Consider `CC(C)(C)C(O)(Cn1cncn1)c1cc(Cl)cc(Oc2ccc(Cl)cc2)c1` (stereo not shown) [Compound I-31], for which the “Growth (%) at 8 ppm Pyrior” value in experiment [3] was 0%.

The values are drawn from patent US20150329501A1, “SUBSTITUTED [1,2,4]TRIAZOLE COMPOUNDS AND THEIR USE AS FUNGICIDES” (BASF SE, priority 2012, published 2015).
